The values below come from ChEMBL document CHEMBL1201862, “PubChem BioAssay data set” (2004).

Common to all, as to assay: NCI-60 cell line screen, 48 h
For experiment [1], the system named is EKVX.
Experiment [2] deals with OVCAR-5.
Experiment [3] has as its system MDA-MB-231.
Experiment [4] has as its system ACHN.
Experiment [5] relates to PC-3.
For experiment [6], the system named is K562.
Experiment [7] concerns SNB-19.
The subject of experiment [8] is UO-31.
Experiment [9] relates to OVCAR-3.
Experiment [10] has as its system SF-295.
The test system of experiment [11] is DU-145.
The test system of experiment [12] is SK-MEL-28.
Experiment [13] concerns RPMI-8226.
The test system of experiment [14] is HT-29.
Experiment [15] deals with COLO 205.
The subject of experiment [16] is Hs-578T.
Experiment [17] has as its system OVCAR-8.
Experiment [18] relates to A498.
Experiment [19] deals with NCI/ADR-RES.
Experiment [20] has as its system HOP-62.

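Cells were grown in 96-well plates and exposed to each compound for 48 hours at five concentrations; endpoints were interpolated linearly between bracketing concentrations, or set to the highest concentration if not reached. Here, GI50 denotes the concentration required for 50% inhibition of growth.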 Active and inactive are the calls of the source. Cut-off read from the data, not from the text of the source: active = GI50 up to about 1.1 µM and inactive = higher.

On to `Cc1ccc(S(=O)(=O)N/N=C2/CC[C@H](C(C)(C)C)C[C@@H]2C)cc1`, for which the GI50 in experiment [1] is 18 µM (inactive); in experiment [2], 18.2 µM (inactive); in experiment [3], 21.2 µM (inactive); in [4] it was 16.6 µM (inactive); in experiment [5], 18.3 µM (inactive); in [6] it was 16.6 µM (inactive). Moreover, the GI50 in experiment [7] is 18.5 µM (inactive); in experiment [8], 13.7 µM (inactive); in [9], 12.6 µM (inactive); in experiment [10], 15.8 µM (inactive); in experiment [11], 15.2 µM (inactive); in [12], 17 µM (inactive). Besides, the GI50 in experiment [13] was 33.4 µM (inactive); in experiment [14], 17.1 µM (inactive); in experiment [15] it was 17 µM (inactive); in [16], 18.2 µM (inactive); in experiment [17], 16 µM (inactive); in experiment [18] it was 17.6 µM (inactive). Further, the GI50 in experiment [19] was 15 µM (inactive); in [20], 13.8 µM (inactive).

On to `COc1cc(/C=C/C(=N\NC(=S)NN)c2sc(NNC(C)=O)nc2C)ccc1O`, for which the GI50 in experiment [1], in [2], in experiment [3], in [4], in [5] and in experiment [6] was > 100 µM (inactive) throughout. Moreover, the GI50 in experiment [7], in experiment [8], in [9], in experiment [10], in experiment [11] and in [12] was > 100 µM (inactive) each time. The GI50 in experiment [13], in experiment [14], in experiment [15], in experiment [16], in experiment [17] and in experiment [18] was > 100 µM (inactive) in each case. Also, the GI50 in [19] and in experiment [20] was > 100 µM (inactive) throughout.

`N/C(=N\O)N/N=C/c1cc(Br)cc(Br)c1O`: the GI50 is 14.9 µM (inactive) in experiment [1]; 9.86 µM (inactive) in experiment [2]; 4.6 µM (inactive) in [3]; 1.95 µM (inactive) in [4]; 5.74 µM (inactive) in experiment [5]; 2.65 µM (inactive) in [6]. The GI50 in experiment [7] is 7.11 µM (inactive); in experiment [8] it was 1.92 µM (inactive); in experiment [9], 2.37 µM (inactive); in experiment [10], 4.98 µM (inactive); in experiment [11], 3.19 µM (inactive); in [12], 8.73 µM (inactive). For the same molecule, the GI50 in experiment [13] is 2.61 µM (inactive); in experiment [14], 11.4 µM (inactive); in experiment [15], 13 µM (inactive); in experiment [16], 26.9 µM (inactive); in experiment [17], 2.37 µM (inactive); in [18], 3.96 µM (inactive). Also, the results for the GI50 in [19] and in experiment [20] were 1.08 µM (active) and 4.21 µM (inactive), respectively.

Turning to `CN(C)CCNC(=O)c1ccc(NCCCN(C)CCCNc2ccc(C(=O)NCCN(C)C)c3nc4ccc([N+](=O)[O-])cc4c(O)c23)c2c(O)c3cc([N+](=O)[O-])ccc3nc12`, the GI50 in experiment [1] was 0.301 µM (active); in experiment [2], 0.158 µM (active); in experiment [3], 0.05 µM (active); in experiment [4], < 0.0121 µM (active); in experiment [5], < 0.01 µM (active); in experiment [6], 0.0135 µM (active). The GI50 is < 0.0146 µM (active) in experiment [7]; 0.154 µM (active) in experiment [8]; 0.186 µM (active) in experiment [9]; 0.0495 µM (active) in experiment [10]; < 0.0272 µM (active) in experiment [11]; 0.157 µM (active) in experiment [12]. The GI50 in experiment [13] was < 0.01 µM (active); in experiment [14], < 0.0182 µM (active); in experiment [15], < 0.0133 µM (active); in experiment [16], 0.0798 µM (active); in [17] it was < 0.01 µM (active); in [18], 0.116 µM (active). Besides, the GI50 in experiment [19] is 1.23 µM (inactive); in experiment [20] it was 0.154 µM (active).

Take `C[C@]12CC[C@H](O)CC1=CC[C@@H]1[C@@H]2CC[C@]2(C)c3nc(Cl)ccc3C[C@@H]12`: the GI50 was 11.4 µM (inactive) in experiment [1]; > 80.9 µM (inactive) in experiment [2]; > 94.6 µM (inactive) in experiment [3]; 15.6 µM (inactive) in experiment [4]; 74.3 µM (inactive) in experiment [5]; 5.78 µM (inactive) in experiment [6]. The GI50 is 36.1 µM (inactive) in [7]; 7.52 µM (inactive) in experiment [8]; 27.3 µM (inactive) in [9]; 28.2 µM (inactive) in experiment [10]; > 100 µM (inactive) in experiment [11]; > 64.1 µM (inactive) in experiment [12]. Moreover, the GI50 is 39.4 µM (inactive) in [13]; 10.9 µM (inactive) in experiment [14]; > 100 µM (inactive) in experiment [15]; 35.2 µM (inactive) in experiment [16]; 62.5 µM (inactive) in [17]; > 100 µM (inactive) in [18]. Moreover, the values for the GI50 in [19] and in experiment [20] were 29.5 µM (inactive) and 30.7 µM (inactive), respectively.

For the molecule `COc1cc(-c2oc3ccccc3c(=O)c2O)cc(OC)c1OC`, the GI50 in experiment [1] is 25.3 µM (inactive); in experiment [2] it was > 100 µM (inactive); in [3], 42.4 µM (inactive); in experiment [4], 6.9 µM (inactive); in [5], 11.3 µM (inactive); in [6], 6.71 µM (inactive). Further, the GI50 in experiment [7] was > 58.9 µM (inactive); in [8], 4.63 µM (inactive); in experiment [9], 4.28 µM (inactive); in [10], 35.7 µM (inactive); in experiment [11], > 31.6 µM (inactive); in experiment [12], > 100 µM (inactive). The GI50 in experiment [13] is 3.43 µM (inactive); in experiment [14], > 74.8 µM (inactive); in experiment [15], 73.3 µM (inactive); in [16], 8.22 µM (inactive); in experiment [17] it was 9.66 µM (inactive); in experiment [18], 22 µM (inactive). Moreover, the GI50 in [19] was 4.32 µM (inactive); in experiment [20], 6.04 µM (inactive).

`COC(=O)c1sc2c(c1C(=O)OC)/C(=N/C(C)(C)C)S/C2=N\C(C)(C)C`: the GI50 in experiment [1] is 16.3 µM (inactive); in [2], 20.6 µM (inactive); in [3], 19.9 µM (inactive); in [4], 18.7 µM (inactive); in experiment [5], 19.1 µM (inactive); in experiment [6] it was 18.5 µM (inactive). In addition, the GI50 in [7] is 17.8 µM (inactive); in experiment [8] it was 0.14 µM (active); in experiment [9], 20.3 µM (inactive); in experiment [10], 19.2 µM (inactive); in experiment [11], 15.5 µM (inactive); in experiment [12] it was 17.3 µM (inactive). Further, the GI50 in [13] was 15.2 µM (inactive); in experiment [14], 16.4 µM (inactive); in experiment [15] it was 17.4 µM (inactive); in experiment [16], 25.7 µM (inactive); in experiment [17], 19.5 µM (inactive); in [18], 17.8 µM (inactive). Also, the GI50 was 19.8 µM (inactive) in experiment [19] and 19.6 µM (inactive) in experiment [20].

In the case of `C=C(CCOC)CCC1CCCCC(CN(C)C)C1=O` (stereo not given), the GI50 in experiment [1], in experiment [2], in experiment [3], in experiment [4], in experiment [5] and in experiment [6] was > 100 µM (inactive) in each case. Further, the GI50 in [7], in [8], in [9], in experiment [10], in experiment [11] and in experiment [12] was > 100 µM (inactive) in each case. Moreover, the GI50 in experiment [13], in [14], in [15], in experiment [16], in [17] and in experiment [18] was > 100 µM (inactive) in each case. The GI50 in experiment [19] and in experiment [20] was > 100 µM (inactive) each time.

In the case of `O=c1n(-c2ccccc2)c(=O)n2n1C1CCC2CC1`, the GI50 in experiment [1], in [2], in experiment [3], in experiment [4], in experiment [5] and in experiment [6] was > 100 µM (inactive) in each case. Moreover, the GI50 in experiment [7], in experiment [8], in [9], in [10], in [11] and in experiment [12] was > 100 µM (inactive) each time. Moreover, the GI50 in experiment [13], in [14], in [15], in experiment [16], in experiment [17] and in [18] was > 100 µM (inactive) throughout. Besides, the GI50 in experiment [19] and in [20] was > 100 µM (inactive) in each case.

For `O=c1onc2c3ccccc3ncn12`, the GI50 in experiment [1], in [2], in experiment [3], in experiment [4], in experiment [5] and in experiment [6] was > 100 µM (inactive) throughout. Also, the GI50 in experiment [7], in experiment [8], in experiment [9], in experiment [10], in experiment [11] and in [12] was > 100 µM (inactive) in each case. Moreover, the GI50 in [13], in experiment [14], in experiment [15], in [16], in [17] and in experiment [18] was > 100 µM (inactive) each time. Also, the GI50 in [19] and in experiment [20] was > 100 µM (inactive) each time.
